In patent US7767712B2, “Storage-stable aqueous composition comprising a magnesium compound and L-carnitine” (Verla-Pharm Arzneimittelfabrik Apotheker H.J.v. Ehrlich …, priority 2006, dated 2010):

Experiment: Solubility of L-carnitine at 20° C.
Format: physicochemical
Details: in 100 g of solution
From the text: This applies, furthermore, without taking into account the amount of water which is required for dissolving magnesium aspartate hydrochloride.

In the case of C[N+](C)(C)CC(O)CC(=O)[O-] [L-carnitine, 3-hydroxy-4-(trimethylammonio)butyro-betaine], the “amount of L-carnitine that can be dissolved in 100 g of an aqueous solution which contains 51% by weight magnesium aspartate hydrochloride” value is reported as “up to 150 g”.
